Measurements taken from patent US20260001928A1 (CORTERIA PHARMACEUTICALS, priority 2022, published 2026).
*1 amine or outer side, *2 acyl side, *3 side chain or, on linkers, in order; H or OH if unused. Where a SMILES comes first, the peptide text is derived from it. Side-chain parts run from the residue outwards. [ ]: non-standard residue; d: D form. The star is where a group is joined. C20 diacid = O=C(O)CCCCCCCCCCCCCCCCCCC(=O)*; γGlu = O=C(O)[C@H](CCC(=O)[*:2])N[*:1]; NMeI = CC[C@H](C)[C@H](NC)C(=O)O; AEEA = NCCOCCOCC(=O)O; Aib = CC(C)(N)C(=O)O

Assays:
human CRF2a receptor = target: T1, human CRF2a receptor (Homo sapiens, UniProt Q13324); experiment: Activity at human CRF2a receptor, cAMP functional assay in TeloHEAC cells; type: cell-based; conditions: TeloHEAC cells stably expressing human CRF2a receptor, relative to urocortin 2 (100 nM = 100%)
T1 construct: expressed in transfected cells; host or cells: TeloHEAC cells
T1 sequence (Q13324 1-411): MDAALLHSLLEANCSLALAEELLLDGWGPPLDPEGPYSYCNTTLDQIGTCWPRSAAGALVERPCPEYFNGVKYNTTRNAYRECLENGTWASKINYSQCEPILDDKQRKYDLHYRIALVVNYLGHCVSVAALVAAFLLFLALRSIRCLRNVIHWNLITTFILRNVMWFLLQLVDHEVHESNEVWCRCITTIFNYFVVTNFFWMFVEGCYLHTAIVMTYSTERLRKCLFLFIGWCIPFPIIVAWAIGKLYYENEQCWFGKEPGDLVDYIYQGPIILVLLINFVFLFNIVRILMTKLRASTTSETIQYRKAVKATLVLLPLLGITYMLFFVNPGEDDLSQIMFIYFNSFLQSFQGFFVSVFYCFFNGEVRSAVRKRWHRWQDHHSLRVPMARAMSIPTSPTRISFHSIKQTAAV
Summary of the method: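 TeloHEAC cells stably expressing human CRF2a (10000 cells/well, suspended in HBSS/20 mM HEPES with 2 mM IBMX) were exposed to compounds for 30 min at 37 °C. cAMP was read as the 665/620 nm fluorescence ratio after 1 h at room temperature. EC50 was derived relative to 100 nM urocortin 2, set as 100%.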

CFR1R receptor = target: T2, CFR1R receptor (Homo sapiens, UniProt P34998); experiment: Activity at anti-target CFR1R receptor, cAMP assay in CRF1R-overexpression CHO-K1 cells; type: cell-based; conditions: 100% = Sauvagine at 100 nM; for EC50: cAMP
T2 construct: host or cells: CHO-K1 (clone 2)
T2 sequence (P34998 24-415): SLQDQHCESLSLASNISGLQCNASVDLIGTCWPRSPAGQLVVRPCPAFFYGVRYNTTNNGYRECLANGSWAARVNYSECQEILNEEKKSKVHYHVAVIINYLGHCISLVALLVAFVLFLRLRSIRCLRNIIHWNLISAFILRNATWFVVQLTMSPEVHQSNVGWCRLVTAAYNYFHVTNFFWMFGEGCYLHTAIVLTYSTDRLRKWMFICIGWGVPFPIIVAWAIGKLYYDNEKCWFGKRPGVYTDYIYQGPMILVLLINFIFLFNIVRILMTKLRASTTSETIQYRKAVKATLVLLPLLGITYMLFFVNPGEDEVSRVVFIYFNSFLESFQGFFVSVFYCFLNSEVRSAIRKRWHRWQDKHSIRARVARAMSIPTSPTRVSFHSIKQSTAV
Summary of the method: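 Signal is normalised to 100 nM Sauvagine, taken as 100% activation, in clone 2 cells plated at a final 4000 cells/well from frozen stocks.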

[1] = In vitro plasma stability, human plasma; type: in vitro ADME; set-up: dose or concentration left out as unconfirmed; conditions: Human PLM, 37° C.
Description: (§1) In vitro plasma metabolic stability was studied in male Sprague Dawley rats and human. Test compounds were incubated at 3 M for 2 hours at 37° C. At each time point (0, 0.25, 1 and 2 h), samples were prepared for analysis by means of a single step protein precipitation technique by adding 150 μL of ethanol, 0.1% formic acid to 50 μL aliquots of plasma. Samples were mixed by vortex for homogeneity and then subjected to centrifugation at 14000 rpm for 15 min. The supernatant (100 μL) was collected, diluted with 100 μL of water, 0.1% formic acid and analyzed by LC-HRMS (TripleTOF 6600+, AB Sciex). For each test compound, the area ratios at each time point were compared to the 0 h area ratio and converted to a percentage remaining.

[2] = In vitro plasma stability, rat plasma; type: in vitro ADME; set-up: remaining at 2 h: dose or concentration left out as unconfirmed; conditions: male, Sprague Dawley, plasma; Rat PLM, 37° C.
Description: as §1

[3] = In vitro subcutaneous tissue supernatant (SCts) stability and metabolite identification, rat; type: in vitro ADME; set-up: remaining at 2 h: dose or concentration left out as unconfirmed; conditions: male, Sprague Dawley; rat subcutaneous tissue supernatant (SCts), 37° C, 2 h
[4] = Chemical stability in buffer (pH 7.4 / pH 4.5), % purity loss; type: physicochemical; conditions: 100 mM phosphate buffer pH 7.4; 40° C. vs 5° C.; 14 or 28 days
Summary of the method: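 Compounds dissolved at 10 mg/mL target in 100 mM phosphate (pH 7.4) or 100 mM acetate (pH 4.5) buffer for 1 h at room temperature, then centrifuged. Diluted supernatant stored at 5 °C or 40 °C for 14 or 28 days; % purity loss by LC-UV.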

Sprague Dawley rats = experiment: Effect on systolic blood pressure, telemetry in Sprague Dawley rats; type: in vivo, rat; conditions: 0.1 mg/kg SC; for Systolic blood pressure (Mean) % change from baseline, 8 h / Systolic blood pressure (Mean) % change from baseline, 12 h / Systolic blood pressure (Mean) % change from baseline, 24 h: n=2; for Duration of action: last time point with an effect on BP still observed
Summary of the method: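 Sprague Dawley rats with abdominal-aorta telemetry catheters, recovered ≥10 days, received 0.1 mg/kg SC of compound or vehicle. Systolic pressure recorded 1 h pre-dose as baseline, then continuously up to 48 hours, expressed as % change from baseline; duration of action is last time point with a BP effect (n=2).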

in vitro = experiment: in vitro; set-up: dose or concentration left out as unconfirmed; conditions: dog, plasma
[5] = Pharmacokinetics in male Sprague Dawley rats after subcutaneous administration; type: in vivo; conditions: plasma, rat, IV, 0.05 mg/kg
Dog PLM = conditions: 37° C., up to 2 hours
Rat PLM = conditions: male Sprague Dawley rats, 37° C., up to 2 hours
Human PLM = conditions: 37° C., up to 2 hours
Minipig PLM = conditions: 37° C., up to 2 hours

EC50 (human CRF2a receptor) [nM] | Emax (% I) (CFR1R receptor) | EC50 (CFR1R receptor) [nM] | remaining at 2 h [1] [%] | remaining at 2 h [2] [%] | remaining at 2 h [3] [%] | Buffer stability pH 7.4 % purity loss [4] | remaining at 2 h (in vitro) [%] | not cleaved (Rat PLM) [% remaining at 2 hours] | not cleaved (Human PLM) [% remaining at 2 hours] | not cleaved (Minipig PLM) [% remaining at 2 hours] | Compound | also measured
0.22 | 27 | > 250 | 99 | 99 | 74 | −0.1/Not Tested % | 102 |  |  |  | CC[C@H](C)[C@H](NC(C)=O)C(=O)N[C@H](C(=O)N[C@@H](CC(C)C)C(=O)N[C@@H](CO)C(=O)N[C@@H](CC(C)C)C(=O)N[C@@H](CC(=O)O)C(=O)N[C@@H](C(=O)N1CCC[C@H]1C(=O)N[C@H](C(=O)N[C@@H](CCCCN)C(=O)N[C@@H](CC(C)C)C(=O)N[C@@H](CCCCNC(=O)CC[C@H](NC(=O)CCCCCCCCCCCCCCCCCCC(=O)O)C(=O)O)C(=O)N[C@@H](CCCCN)C(=O)N[C@H](C(=O)N[C@@H](CC(C)C)C(=O)N[C@@H](CC(C)C)C(=O)N[C@@H](CCC(=O)O)C(=O)N[C@@H](CCC(N)=O)C(=O)N[C@@H](CCC(=O)O)C(=O)N[C@@H](CCCCN)C(=O)N[C@@H](CCC(N)=O)C(=O)N[C@@H](CCCCN)C(=O)N[C@@H](CCC(=O)O)C(=O)N[C@@H](CCC(N)=O)C(=O)N[C@@H](CCCNC(=N)N)C(=O)N[C@@H](CCC(=O)O)C(=O)N[C@@H](CCC(N)=O)C(=O)N[C@@H](C)C(=O)N[C@@H](CCC(=O)O)C(=O)N[C@H](C(=O)N[C@@H](CC(N)=O)C(=O)NC(C)(C)C(=O)N[C@@H](CCC(N)=O)C(=O)N[C@H](C(=O)N[C@@H](CC(C)C)C(=O)N[C@@H](C)C(=O)N[C@@H](CCC(N)=O)C(=O)N[C@H](C(N)=O)C(C)C)[C@@H](C)CC)[C@@H](C)O)[C@@H](C)CC)[C@@H](C)CC)C(C)C)C(C)C [compound 213] (Ac-IVLSLD[dV]PIKLK([γGlu-C20 diacid])KILLEQEKQKEQREQAETN[Aib]QILAQV-NH2) | Systolic blood pressure (Mean) % change from baseline, 8 h (Sprague Dawley rats): −10%; Systolic blood pressure (Mean) % change from baseline, 12 h (Sprague Dawley rats): −18%; Systolic blood pressure (Mean) % change from baseline, 24 h (Sprague Dawley rats): −13%; Duration of action (Sprague Dawley rats): >24 h
0.12 | 8 | > 250 | 100 | 106 | 56 | 0.0/Not Tested % | 99 |  |  |  | CC[C@H](C)[C@H](NC)C(=O)N[C@H](C(=O)N[C@@H](CC(C)C)C(=O)N[C@@H](CO)C(=O)N[C@@H](CC(C)C)C(=O)N[C@@H](CC(=O)O)C(=O)N[C@@H](C(=O)N1CCC[C@H]1C(=O)N[C@H](C(=O)N[C@@H](CCCCN)C(=O)N[C@@H](CC(C)C)C(=O)N[C@@H](CCCCNC(=O)COCCOCCNC(=O)CC[C@H](NC(=O)CCCCCCCCCCCCCCCCCCC(=O)O)C(=O)O)C(=O)N[C@@H](CCCCN)C(=O)N[C@H](C(=O)N[C@@H](CC(C)C)C(=O)N[C@@H](CC(C)C)C(=O)N[C@@H](CCC(=O)O)C(=O)N[C@@H](CCC(N)=O)C(=O)N[C@@H](CCC(=O)O)C(=O)N[C@@H](CCCCN)C(=O)N[C@@H](CCC(N)=O)C(=O)N[C@@H](CCCCN)C(=O)N[C@@H](CCC(=O)O)C(=O)N[C@@H](CCC(N)=O)C(=O)N[C@@H](CCCNC(=N)N)C(=O)N[C@@H](CCC(=O)O)C(=O)N[C@@H](CCC(N)=O)C(=O)N[C@@H](C)C(=O)N[C@@H](CCC(=O)O)C(=O)N[C@H](C(=O)N[C@@H](CC(N)=O)C(=O)NC(C)(C)C(=O)N[C@@H](CCC(N)=O)C(=O)N[C@H](C(=O)N[C@@H](CC(C)C)C(=O)N[C@@H](C)C(=O)N[C@@H](CCC(N)=O)C(=O)N[C@H](C(N)=O)C(C)C)[C@@H](C)CC)[C@@H](C)O)[C@@H](C)CC)[C@@H](C)CC)C(C)C)C(C)C [compound 233] (H-[NMeI]VLSLD[dV]PIKLK([AEEA-γGlu-C20 diacid])KILLEQEKQKEQREQAETN[Aib]QILAQV-NH2) | Systolic blood pressure (Mean) % change from baseline, 8 h (Sprague Dawley rats): 1%; Systolic blood pressure (Mean) % change from baseline, 12 h (Sprague Dawley rats): −8%; Systolic blood pressure (Mean) % change from baseline, 24 h (Sprague Dawley rats): −11%; Duration of action (Sprague Dawley rats): >24 h; AUC(0-t) [5]: 4880 ng·h/mL; half-life [5]: 9 h
0.41 | 6 | > 250 | 83 | 84 | 60 | 0.0/Not Tested % | 86 |  |  |  | CC[C@H](C)[C@H](NC)C(=O)N[C@H](C(=O)N[C@@H](CC(C)C)C(=O)N[C@@H](CO)C(=O)N[C@@H](CC(C)C)C(=O)N[C@@H](CC(=O)O)C(=O)N[C@@H](C(=O)N1CCC[C@H]1C(=O)N[C@H](C(=O)N[C@@H](CCCCN)C(=O)N[C@@H](CC(C)C)C(=O)N[C@@H](CCCCNC(=O)COCCOCCNC(=O)COCCOCCNC(=O)CC[C@H](NC(=O)CCCCCCCCCCCCCCCCCCC(=O)O)C(=O)O)C(=O)N[C@@H](CCCCN)C(=O)N[C@H](C(=O)N[C@@H](CC(C)C)C(=O)N[C@@H](CC(C)C)C(=O)N[C@@H](CCC(=O)O)C(=O)N[C@@H](CCC(N)=O)C(=O)N[C@@H](CCC(=O)O)C(=O)N[C@@H](CCCCN)C(=O)N[C@@H](CCC(N)=O)C(=O)N[C@@H](CCCCN)C(=O)N[C@@H](CCC(=O)O)C(=O)N[C@@H](CCC(N)=O)C(=O)N[C@@H](CCCNC(=N)N)C(=O)N[C@@H](CCC(=O)O)C(=O)N[C@@H](CCC(N)=O)C(=O)N[C@@H](C)C(=O)N[C@@H](CCC(=O)O)C(=O)N[C@H](C(=O)N[C@@H](CC(N)=O)C(=O)NC(C)(C)C(=O)N[C@@H](CCC(N)=O)C(=O)N[C@H](C(=O)N[C@@H](CC(C)C)C(=O)N[C@@H](C)C(=O)N[C@@H](CCC(N)=O)C(=O)N[C@H](C(N)=O)C(C)C)[C@@H](C)CC)[C@@H](C)O)[C@@H](C)CC)[C@@H](C)CC)C(C)C)C(C)C [compound 237] (H-[NMeI]VLSLD[dV]PIKLK([AEEA-AEEA-γGlu-C20 diacid])KILLEQEKQKEQREQAETN[Aib]QILAQV-NH2) | AUC(0-t) [5]: 4160 ng·h/mL; half-life [5]: 11 h
 |  |  |  |  |  |  |  | 99 | 99 |  | Ac-IVLSLDvPIKLK*KILLEQEKQKEQREQAETNAibQILAQV-NH2 | percent remaining (Dog PLM): 102% remaining at 2 hours
 |  |  |  |  |  |  |  |  | 102 | 97 | Ac-IVLSLDvPIKLK*KILLEQEKQKKQREQAETNAbuQILAQV-NH2 | 
 |  |  |  |  |  |  |  | 108 | 93 | 110 | Ac-IVLSLDvPIKLK*KILLEQEKQKKQREQAETNAibQILAQV-NH2 | 
 |  |  |  |  |  |  |  | 95 | 97 | 106 | Ac-IVLSLDvPIKαMELK*KILLEQEKQKKQREQAETNAibQILAQV-NH2 | 
 |  |  |  |  |  |  |  | 128 | 91 | 126 | NMeIVLSLDvPIKLK*KILLEQEKQKKQREQAETNAibQILAQV-NH2 | 
 |  |  |  |  |  |  |  | 98 | 101 | 104 | Pentanoyl-VLSLDvPIKLK*KILLEQEKQKKQREQAETNAibQILAQV-NH2 | 
